Experimental data taken from US20180055887A1, “METHOD FOR PREPARING INDUCED MESENCHYMAL STEM CELLS AND IMPROVING MESENCHYMAL STEM CELL'S CHARACTERS AND ITS APPLICATIONS” (ACADEMIA SINICA, priority 2016, published 2018).
Marks after values point to notes of the source that are not given here.

Tests used:
[1] = system: Human primary neonatal foreskin fibroblasts (CRL2097); assay: Generation of iMSCs from fibroblasts by chemical treatment, flow cytometry for SSEA-4 and PODXL; assay type: cell-based; conditions: for Percentage of cells with both SSEA-4 and PODXL: CRL2097 fibroblasts, DMEM only 0.1%; for iMSC generation from fibroblasts (in words): SSEA-4+PODXL+ population by flow cytometry, without growth factors
Procedure: For iMSC dedifferentiation from human fibroblasts, primary fibroblasts were cultured in DMEM-HG for 2 days. The culture medium was then replaced with medium containing different chemical(s), with or without growth factor(s), for 3 to 21 days (FIG. 1A). Cells were cultured at 37° C. under 5% CO2.
Cells were then analyzed by FACSCanto (Becton Dickinson, Franklin Lakes, N.J., USA). SSEA-4 and PODXL double positive cells were isolated using a cell sorter (FACS Aria II, BD Biosciences).
After culture, the cells treated by the chemical cocktail were examined by flow cytometry.
Human primary neonatal foreskin fibroblasts (CRL2097) were cultured in DMEM medium only (as a negative control) or in DMEM medium containing a GSK3β inhibitor (CHIR99021, 3 μM) or a protein kinase C inhibitor (Go6983, 5 μM), and the percentage of the cells converted to iMSCs, co-expressing SSEA-4 and PODXL, were determined by flow cytometer.
Additional combinations of chemicals were analyzed for their activities to generate iMSCs from fibroblasts and the percentage of the cells converted to iMSCs, co-expressing SSEA-4 and PODXL, were determined by flow cytometer.

[2] = system: BMMSCs; assay: Improvement of multipotency of MSCs: percentage of MSC markers SSEA-4 and PODXL by flow cytometer; assay type: cell-based, human; conditions: treatment of BMMSCs
Procedure: For cell surface marker analysis, BMMSCs, iMSCs, and fibroblasts were incubated with FITC-conjugated anti-human SSEA-4 (clone MC-813-70; eBiosciences, San Diego, Calif., USA) and PE-conjugated anti-human PODXL (clone B34D1.3; eBiosciences) antibodies. Cells were then analyzed by FACSCanto (Becton Dickinson, Franklin Lakes, N.J., USA). SSEA-4 and PODXL double positive cells were isolated using a cell sorter (FACS Aria II, BD Biosciences).
BBMSCs were cultured in conversion medium for 6 days, without chemical treatment (control) or with treatment of chemical cocktails (6C+3GF), including six chemical kinase(6C) inhibitors i.e. a p38 inhibitor (5B202190), a JNK inhibitor (SP600125), a protein kinase C inhibitor (Go6983), a ROCK inhibitor (Y-27632), a ERK1/2 inhibitor (PD0325901) and a GSK3β inhibitor (CHIR99021) and three growth factors i.e. a leukemia inhibitory factor (LIF), a basic fibroblast growth factor (bFGF) and a transforming growth factor-β (TGF-β). In other conditions, MSCs were cultured with chemicals cocktails (six, seven or eight chemicals) without the growth factors. The percentages of the MSC markers, SSEA-4 and PODXL, were determined by flow cytometer. Six chemicals (6C) includes a p38 inhibitor (SB202190), a JNK inhibitor (SP600125), a protein kinase C inhibitor (Go6983), a ROCK inhibitor (Y-27632), a ERK1/2 inhibitor (PD0325901) and a GSK3β inhibitor (CHIR99021). […]

[3] = Table 2: other factors or a combination, tested in the same manner

| Compound | Percentage of cells with both SSEA-4 and PODXL [1, 3] | other results |
| --- | --- | --- |
| COc1cc2nc(N3CCCN(C)CC3)nc(NC3CCN(Cc4ccccc4)CC3)c2cc1OC [BIX01294] | 0.30% | – |
| Cc1cnc(-c2cnc(NCCNc3ccc(C#N)cn3)nc2-c2ccc(Cl)cc2Cl)[nH]1 [CHIR99021, 6-[(2-{[4-(2,4-Dichlorophenyl)-5-(5-methyl-1H-imidazol-2-yl)-2-pyrimidinyl]amino}ethyl)amino]nicotinonitrile] | – | iMSC generation from fibroblasts (in words) [1]: effective in iMSC generation; Percentage of cells with both SSEA-4 and PODXL ([1]; Table 1: single factor in DMEM medium, CHIR99021 3 μM, Go6983 5 μM): 0.9%; Percentage of cells with both SSEA-4 and PODXL ([1]; Table 1: single factor in DMEM medium, CHIR99021 3 μM, Go6983 5 μM, listed as CHIR99201): 0.90%* |
| Cc1nc(Nc2ncc(C(=O)Nc3c(C)cccc3Cl)s2)cc(N2CCN(CCO)CC2)n1 [Dasatinib] | 0.40% | – |
| c1cc(-c2cnn3cc(-c4ccc(OCCN5CCCCC5)cc4)cnc23)ccn1 [Dorsomorphin, 6-[4-(2-Piperidin-1-yl-ethoxy)-phenyl]-3-pyridin-4-yl-pyrrazolo[1,5,-α]pyrimidine] | 0.10% | Percentage of cells with both SSEA-4 and PODXL ([1]; Table 2: other factors or a combination, tested in the same manner, listed as dorsomorphin): 0.1% |
| O=S(=O)(c1cccc2cnccc12)N1CCCNCC1 [Fasudil] | 0.20% | – |
| N[C@@H](CCC(=O)N[C@@H](CS)C(=O)NCC(=O)O)C(=O)O [GSH, Glutathione] | 0.40% | – |
| COc1ccc2c(c1)c(C1=C(c3c[nH]c4ccccc34)C(=O)NC1=O)cn2CCCN(C)C [Go6983, 3-{1-[3-(Dimethylamino)propyl]-5-methoxy-1H-indol-3-yl}-4-(1H-indol-3-yl)-1H-pyrrole-2,5-dione] | – | iMSC generation from fibroblasts (in words) [1]: effective in iMSC generation; expression of functional markers of BMSCs (in words) [2]: can effectively increase the expression of functional markers |
| O=c1cc(N2CCOCC2)oc2c(-c3ccccc3)cccc12 [LY294002] | 0.80% | – |
| CC(=O)N[C@@H](CS)C(=O)O [NAC, N-Acetylcysteine] | 0.50% | – |
| O=C(NOC[C@@H](O)CO)c1ccc(F)c(F)c1Nc1ccc(I)cc1F [PD0325901, N-[(2S)-2,3-Dihydroxypropoxy]-3,4-difluoro-2-[(2-fluoro-4-iodophenyl)amino]benzamide] | 0.40% | – |
| CO[C@H]1C[C@@H]2CC[C@@H](C)[C@@](O)(O2)C(=O)C(=O)N2CCCC[C@H]2C(=O)O[C@H]([C@H](C)C[C@@H]2CC[C@@H](O)[C@H](OC)C2)CC(=O)[C@H](C)/C=C(\C)[C@@H](O)[C@@H](OC)C(=O)[C@H](C)C[C@H](C)/C=C/C=C/C=C/1C [Rapamycin, (1R,9S,12S,15R,16E,18R,19R,21R,23S,24E,26E,28E,30S,32S,35R)-1,18-Dihydroxy-12-{(2R)-1-[(1S,3R,4R)-4-hydroxy-3-methoxycyclohexyl]-2-propanyl}-19,30-dimethoxy-15,17,21,23,29,35-hexamethyl-11,36-dioxa-4-azatricyclo[30.3.1.0~4,9~]hexatriaconta-16,24,26,28-tetraene-2,3,10,14,20-pentone] | 0.20% | – |
| Cc1cccc(-c2n[nH]cc2-c2ccc3ncccc3n2)n1 [Repsox, 2-[3-(6-Methyl-2-pyridinyl)-1H-pyrazol-4-yl]-1,5-naphthyridine] | 0.40% | – |
| COc1ccc(C2CNC(=O)C2)cc1OC1CCCC1 (stereo not shown) [Rolipram] | 0.30% | – |
| Oc1ccc(-c2nc(-c3ccncc3)c(-c3ccc(F)cc3)[nH]2)cc1 [SB202190] | 0.10% | – |
| C[S+]([O-])c1ccc(-c2nc(-c3ccc(F)cc3)c(-c3ccncc3)[nH]2)cc1 (stereo not shown) [SB203580] | 0.10% | – |
| NC(=O)c1ccc(-c2nc(-c3ccc4c(c3)OCO4)c(-c3ccccn3)[nH]2)cc1 [SB431542] | 0.40% | – |
| CC(C)N(CCCNC(=O)Nc1ccc(C(C)(C)C)cc1)C[C@H]1O[C@@H](n2cc(Br)c3c(N)ncnc32)[C@H](O)[C@@H]1O [SGC0946, 5-Bromo-7-(5-deoxy-5-{isopropyl[3-({[4-(2-methyl-2-propanyl)phenyl]carbamoyl}amino)propyl]amino}-β-D-ribofuranosyl)-7H-pyrrolo[2,3-d]pyrimidin-4-amine] | 0.20% | – |
| O=C1c2ccccc2-c2n[nH]c3cccc1c23 [SP600125] | 0.20% | – |
| CCCC(=O)[O-].[Na+] [Sodium butyrate] | 0.70% | – |
| O=C(NCc1ccccc1)c1csc(Nc2ccncn2)n1 [Thiazovivin] | 0.80% | Percentage of cells with both SSEA-4 and PODXL ([1]; Table 2: other factors or a combination, tested in the same manner, listed as thiazovivin): 0.8% |
| CCCC(CCC)C(=O)O [VPA, 2-Propylpentanoic acid] | 0.2% | – |
| O=C1O[C@H]([C@@H](O)CO)C(O)=C1O [VitC, ascorbic acid] | 0.60% | – |
| C[C@@H](N)[C@H]1CC[C@H](C(=O)Nc2ccncc2)CC1 [Y27632] | 0.50% | – |
